Key:
Format in all cases: functional
Thanatephorus cucumeris = assay: Antifungal activity against Rhizoctonia solani at 50 ug/ml
Botrytis cinerea = assay: Antifungal activity against Botrytis cinereapers at 50 ug/ml
Fusarium graminearum = assay: Antifungal activity against Gibberella zeae at 50 ug/ml
Bipolaris maydis = assay: Antifungal activity against Bipolaris maydis at 50 ug/ml
[1] = tested on: Botryosphaeria berengeriana; assay: Antifungal activity against Physalospora piricola at 50 ug/ml

CO/N=C(/C(=O)OC)c1ccccc1CSc1nnc(-c2ccc(OC)cc2)o1
inhibition at 50 µg/mL (Thanatephorus cucumeris): 91.8%
inhibition at 50 µg/mL (Botrytis cinerea): 94.2%
inhibition at 50 µg/mL (Fusarium graminearum): 85.7%
inhibition at 50 µg/mL (Bipolaris maydis): 92.5%
inhibition at 50 µg/mL [1]: 93.8%

CO/N=C(/C(=O)OC)c1ccccc1CSc1nnc(-c2cccc(Cl)c2)o1
inhibition at 50 µg/mL (Thanatephorus cucumeris): 94.4%
inhibition at 50 µg/mL (Botrytis cinerea): 85.4%
inhibition at 50 µg/mL (Fusarium graminearum): 96.9%
inhibition at 50 µg/mL (Bipolaris maydis): 90.9%
inhibition at 50 µg/mL [1]: 92.6%

CO/N=C(/C(=O)OC)c1ccccc1CSc1nnc(-c2ccc(C(F)(F)F)cc2)o1
inhibition at 50 µg/mL (Thanatephorus cucumeris): 95.6%
inhibition at 50 µg/mL (Botrytis cinerea): 84.6%
inhibition at 50 µg/mL (Fusarium graminearum): 93.8%
inhibition at 50 µg/mL (Bipolaris maydis): 81.8%
inhibition at 50 µg/mL [1]: 100%

CO/N=C(/C(=O)OC)c1ccccc1CSc1nnc(-c2ccccc2F)o1
inhibition at 50 µg/mL (Thanatephorus cucumeris): 92.6%
inhibition at 50 µg/mL (Botrytis cinerea): 97.6%
inhibition at 50 µg/mL (Fusarium graminearum): 98%
inhibition at 50 µg/mL (Bipolaris maydis): 92.3%
inhibition at 50 µg/mL [1]: 100%

CO/N=C(/C(=O)OC)c1ccccc1CSc1nnc(-c2cccc(Cl)c2Cl)o1
inhibition at 50 µg/mL (Thanatephorus cucumeris): 91.6%
inhibition at 50 µg/mL (Botrytis cinerea): 83.3%
inhibition at 50 µg/mL (Fusarium graminearum): 84.3%
inhibition at 50 µg/mL (Bipolaris maydis): 84%
inhibition at 50 µg/mL [1]: 96.7%

CO/N=C(/C(=O)OC)c1ccccc1CSc1nnc(-c2ccc(Cl)cc2Cl)o1
inhibition at 50 µg/mL (Thanatephorus cucumeris): 92.6%
inhibition at 50 µg/mL (Botrytis cinerea): 98.8%
inhibition at 50 µg/mL (Fusarium graminearum): 74.3%
inhibition at 50 µg/mL (Bipolaris maydis): 85.7%
inhibition at 50 µg/mL [1]: 88.9%

CO/N=C(/C(=O)OC)c1ccccc1CSc1nnc(-c2ccccc2I)o1
inhibition at 50 µg/mL (Thanatephorus cucumeris): 90.2%
inhibition at 50 µg/mL (Botrytis cinerea): 96.2%
inhibition at 50 µg/mL (Fusarium graminearum): 98.4%
inhibition at 50 µg/mL (Bipolaris maydis): 86.4%
inhibition at 50 µg/mL [1]: 96.3%

CO/N=C(/C(=O)OC)c1ccccc1CSc1nnc(-c2cc(Cl)ccc2Cl)o1
inhibition at 50 µg/mL (Thanatephorus cucumeris): 97%
inhibition at 50 µg/mL (Botrytis cinerea): 88.5%
inhibition at 50 µg/mL (Fusarium graminearum): 90.6%
inhibition at 50 µg/mL (Bipolaris maydis): 82.7%
inhibition at 50 µg/mL [1]: 100%

CO/N=C(/C(=O)OC)c1ccccc1CSc1nnc(-c2ccc(OCc3ccccc3)cc2)o1
inhibition at 50 µg/mL (Thanatephorus cucumeris): 98%
inhibition at 50 µg/mL (Botrytis cinerea): 90.6%
inhibition at 50 µg/mL (Fusarium graminearum): 89.2%
inhibition at 50 µg/mL (Bipolaris maydis): 95%
inhibition at 50 µg/mL [1]: 96.9%

CO/N=C(/C(=O)OC)c1ccccc1CSc1nnc(-c2ccccc2)o1
inhibition at 50 µg/mL (Thanatephorus cucumeris): 92.4%
inhibition at 50 µg/mL (Botrytis cinerea): 97.6%
inhibition at 50 µg/mL (Fusarium graminearum): 79.4%
inhibition at 50 µg/mL (Bipolaris maydis): 88%
inhibition at 50 µg/mL [1]: 94.9%

CO/N=C(/C(=O)OC)c1ccccc1CSc1nnc(-c2ccc(Br)cc2F)o1
inhibition at 50 µg/mL (Thanatephorus cucumeris): 97.9%
inhibition at 50 µg/mL (Botrytis cinerea): 100%
inhibition at 50 µg/mL (Fusarium graminearum): 85.7%
inhibition at 50 µg/mL (Bipolaris maydis): 92.9%
inhibition at 50 µg/mL [1]: 100%

CO/N=C(/C(=O)OC)c1ccccc1CSc1nnc(-c2ccc(F)cc2)o1
inhibition at 50 µg/mL (Thanatephorus cucumeris): 97.9%
inhibition at 50 µg/mL (Botrytis cinerea): 100%
inhibition at 50 µg/mL (Fusarium graminearum): 98.6%
inhibition at 50 µg/mL (Bipolaris maydis): 91.7%
inhibition at 50 µg/mL [1]: 100%

CO/N=C(/C(=O)OC)c1ccccc1CSc1nnc(-c2ccc([N+](=O)[O-])cc2)o1
inhibition at 50 µg/mL (Thanatephorus cucumeris): 85.9%
inhibition at 50 µg/mL (Botrytis cinerea): 88.5%
inhibition at 50 µg/mL (Fusarium graminearum): 92.5%
inhibition at 50 µg/mL (Bipolaris maydis): 86.4%
inhibition at 50 µg/mL [1]: 96.3%

CO/N=C(/C(=O)OC)c1ccccc1CSc1nnc(-c2cccc(F)c2F)o1
inhibition at 50 µg/mL (Thanatephorus cucumeris): 100%
inhibition at 50 µg/mL (Botrytis cinerea): 100%
inhibition at 50 µg/mL (Fusarium graminearum): 98.6%
inhibition at 50 µg/mL (Bipolaris maydis): 96.4%
inhibition at 50 µg/mL [1]: 100%

CO/N=C(/C(=O)OC)c1ccccc1CSc1nnc(-c2cc(F)c(Cl)cc2Cl)o1
inhibition at 50 µg/mL (Thanatephorus cucumeris): 97.8%
inhibition at 50 µg/mL (Botrytis cinerea): 98.8%
inhibition at 50 µg/mL (Fusarium graminearum): 88.6%
inhibition at 50 µg/mL (Bipolaris maydis): 81.6%
inhibition at 50 µg/mL [1]: 100%

CO/N=C(/C(=O)OC)c1ccccc1COc1ccccc1C [KRESOXIM-METHYL]
inhibition at 50 µg/mL (Thanatephorus cucumeris): 66.1%
inhibition at 50 µg/mL (Botrytis cinerea): 97.2%
inhibition at 50 µg/mL (Fusarium graminearum): 96.8%
inhibition at 50 µg/mL (Bipolaris maydis): 90.6%
inhibition at 50 µg/mL [1]: 98.5%

Reference: ChEMBL document CHEMBL1146969, “Stereoselective synthesis and fungicidal activities of (E)-alpha-(methoxyimino)-benzeneacetate derivatives containing 1,3,4-oxadiazole ring” (2006)
